Reference: patent publication US20260248775A1, “NEW INHIBITORS OF PHOSPHATIDYLINOSITOL 3-KINASE” (INSTITUT NATIONAL DE LA SANTÉ ET DE LA RECHERCHE MÉDICALE, priority 2022, published 2026)

What was measured:
[1] = molecular target: PI3K-α (PI3K p110a/p65a (h)) (Homo sapiens, UniProt P42336); assay: PI3K-inhibitory activity, enzymatic HTRF assay, PI3K-α; assay type: biochemical; conditions: 10 μM PIP2, 30 minutes at room temperature, read-out: Class IC50 PI3K-α
Procedure: (§1) Inhibitory activity of compounds against the Human PtdIns (4,5) P 3-kinase activity was quantified employing the enzymatic HTRF (Homogeneous Time Resolved Fluorescence) Assay.
(§2) PI3K p110a/[…] (h) is incubated in assay buffer containing 10 μM phosphatidylinositol 4,5-bisphosphate and Mg/ATP (concentration as required). The reaction is initiated by the addition of the ATP solution. After incubation for 30 minutes at room temperature, the reaction is stopped by the addition of stop solution containing EDTA and biotinylated phosphatidylinositol-3,4,5-trisphosphate. Finally, detection buffer is added, which contains europium-labelled anti-GST monoclonal antibody, GST-tagged GRP1 PH domain and streptavidin allophycocyanin. The plate is then read in time resolved fluorescence mode and the homogeneous time-resolved fluorescence (HTRF) signal is determined according to the formula HTRF=10000×(Em665 nm/Em620 nm)

PI3K-β = PI3K-β (Homo sapiens, UniProt P42338); assay: PI3K-inhibitory activity, enzymatic HTRF assay, PI3K-β; assay type: biochemical; conditions: read-out: Class IC50 PI3K-β
PI3K-β, sequence (P42338 whole entry): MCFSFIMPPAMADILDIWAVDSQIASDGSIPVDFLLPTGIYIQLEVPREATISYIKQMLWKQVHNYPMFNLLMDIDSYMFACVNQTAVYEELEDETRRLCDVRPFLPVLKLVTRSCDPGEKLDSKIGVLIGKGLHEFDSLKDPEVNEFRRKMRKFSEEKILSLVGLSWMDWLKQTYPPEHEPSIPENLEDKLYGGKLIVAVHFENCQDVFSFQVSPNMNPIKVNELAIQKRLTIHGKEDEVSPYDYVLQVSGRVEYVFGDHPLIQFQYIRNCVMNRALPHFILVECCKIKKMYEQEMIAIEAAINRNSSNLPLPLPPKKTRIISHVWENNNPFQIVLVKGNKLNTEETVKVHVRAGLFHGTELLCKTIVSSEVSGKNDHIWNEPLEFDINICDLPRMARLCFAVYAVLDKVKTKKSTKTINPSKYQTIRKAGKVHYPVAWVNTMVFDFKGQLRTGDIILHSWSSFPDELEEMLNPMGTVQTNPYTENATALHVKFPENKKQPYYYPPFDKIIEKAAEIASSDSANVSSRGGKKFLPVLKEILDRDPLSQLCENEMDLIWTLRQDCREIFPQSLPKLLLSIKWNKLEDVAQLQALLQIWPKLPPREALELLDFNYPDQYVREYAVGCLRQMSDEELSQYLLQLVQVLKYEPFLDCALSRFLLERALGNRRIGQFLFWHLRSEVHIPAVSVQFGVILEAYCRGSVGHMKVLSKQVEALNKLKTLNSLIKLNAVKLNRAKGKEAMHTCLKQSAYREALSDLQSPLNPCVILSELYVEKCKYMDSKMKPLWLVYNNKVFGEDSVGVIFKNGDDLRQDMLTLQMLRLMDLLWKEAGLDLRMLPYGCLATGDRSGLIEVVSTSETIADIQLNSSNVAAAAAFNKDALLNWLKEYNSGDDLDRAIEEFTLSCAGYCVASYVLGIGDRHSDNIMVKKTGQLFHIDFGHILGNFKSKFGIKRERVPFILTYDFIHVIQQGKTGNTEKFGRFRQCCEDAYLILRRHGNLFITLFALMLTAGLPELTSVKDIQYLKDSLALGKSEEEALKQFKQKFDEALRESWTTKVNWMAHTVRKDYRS
PI3K-β, sequence (P27986 whole entry partner): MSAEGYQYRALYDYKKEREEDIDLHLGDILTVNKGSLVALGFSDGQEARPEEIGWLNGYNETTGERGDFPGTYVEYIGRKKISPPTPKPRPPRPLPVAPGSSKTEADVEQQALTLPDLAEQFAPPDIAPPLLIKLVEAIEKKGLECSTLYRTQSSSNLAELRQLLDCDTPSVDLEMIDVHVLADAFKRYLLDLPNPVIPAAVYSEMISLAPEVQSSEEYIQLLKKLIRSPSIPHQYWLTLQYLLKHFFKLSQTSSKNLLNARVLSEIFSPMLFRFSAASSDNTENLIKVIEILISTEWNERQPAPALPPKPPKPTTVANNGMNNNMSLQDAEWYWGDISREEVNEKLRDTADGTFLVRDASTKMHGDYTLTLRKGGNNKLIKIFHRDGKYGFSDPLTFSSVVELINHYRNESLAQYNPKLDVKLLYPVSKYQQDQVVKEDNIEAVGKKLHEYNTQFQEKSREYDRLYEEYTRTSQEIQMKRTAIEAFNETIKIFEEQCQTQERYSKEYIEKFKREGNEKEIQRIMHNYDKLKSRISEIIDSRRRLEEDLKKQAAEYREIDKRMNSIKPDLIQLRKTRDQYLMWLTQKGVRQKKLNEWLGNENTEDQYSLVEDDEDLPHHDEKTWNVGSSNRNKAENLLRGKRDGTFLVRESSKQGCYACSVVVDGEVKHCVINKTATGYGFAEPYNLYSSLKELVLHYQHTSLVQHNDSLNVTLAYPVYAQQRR
Procedure: [The procedure below names another target; the source lists this target under the same test.] as §1, §2

PI3K-γ = PI3K-γ (Homo sapiens, UniProt P48736); assay: PI3K-inhibitory activity, enzymatic HTRF assay, PI3K-γ; assay type: biochemical; conditions: read-out: Class IC50 PI3K-γ
PI3K-γ, sequence (P48736 whole entry): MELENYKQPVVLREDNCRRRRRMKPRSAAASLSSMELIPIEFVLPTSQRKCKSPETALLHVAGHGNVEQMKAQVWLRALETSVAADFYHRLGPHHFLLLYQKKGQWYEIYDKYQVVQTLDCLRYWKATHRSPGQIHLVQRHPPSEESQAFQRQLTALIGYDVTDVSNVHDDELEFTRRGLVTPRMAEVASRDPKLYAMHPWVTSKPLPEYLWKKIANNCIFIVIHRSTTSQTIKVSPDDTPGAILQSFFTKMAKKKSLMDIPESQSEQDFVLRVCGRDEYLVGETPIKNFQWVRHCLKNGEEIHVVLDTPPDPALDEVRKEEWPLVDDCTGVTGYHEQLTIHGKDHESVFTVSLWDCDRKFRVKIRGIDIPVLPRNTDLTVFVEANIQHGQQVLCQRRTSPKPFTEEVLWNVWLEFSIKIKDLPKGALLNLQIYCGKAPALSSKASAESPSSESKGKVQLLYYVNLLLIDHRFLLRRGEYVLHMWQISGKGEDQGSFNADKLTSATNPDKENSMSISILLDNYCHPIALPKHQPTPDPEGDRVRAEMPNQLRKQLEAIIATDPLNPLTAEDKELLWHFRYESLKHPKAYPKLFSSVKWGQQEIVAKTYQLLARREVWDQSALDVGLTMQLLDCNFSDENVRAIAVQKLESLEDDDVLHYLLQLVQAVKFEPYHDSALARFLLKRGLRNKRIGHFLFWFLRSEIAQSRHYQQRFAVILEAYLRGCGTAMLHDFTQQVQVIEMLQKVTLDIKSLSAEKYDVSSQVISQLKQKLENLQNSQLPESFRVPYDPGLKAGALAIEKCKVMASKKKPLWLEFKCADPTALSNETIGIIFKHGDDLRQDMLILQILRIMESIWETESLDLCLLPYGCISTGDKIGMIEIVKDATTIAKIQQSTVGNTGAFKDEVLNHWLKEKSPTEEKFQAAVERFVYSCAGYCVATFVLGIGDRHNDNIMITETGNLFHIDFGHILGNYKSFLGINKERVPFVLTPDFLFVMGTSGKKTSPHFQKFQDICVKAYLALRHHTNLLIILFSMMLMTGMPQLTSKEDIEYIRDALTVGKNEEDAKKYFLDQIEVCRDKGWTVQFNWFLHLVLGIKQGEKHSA
Procedure: [The procedure below names another target; the source lists this target under the same test.] as §1, §2

PI3K-δ = PI3K-δ (Homo sapiens, UniProt O00329); assay: PI3K-inhibitory activity, enzymatic HTRF assay, PI3K-δ; assay type: biochemical; conditions: read-out: Class IC50 PI3K-δ
PI3K-δ, sequence (O00329 whole entry): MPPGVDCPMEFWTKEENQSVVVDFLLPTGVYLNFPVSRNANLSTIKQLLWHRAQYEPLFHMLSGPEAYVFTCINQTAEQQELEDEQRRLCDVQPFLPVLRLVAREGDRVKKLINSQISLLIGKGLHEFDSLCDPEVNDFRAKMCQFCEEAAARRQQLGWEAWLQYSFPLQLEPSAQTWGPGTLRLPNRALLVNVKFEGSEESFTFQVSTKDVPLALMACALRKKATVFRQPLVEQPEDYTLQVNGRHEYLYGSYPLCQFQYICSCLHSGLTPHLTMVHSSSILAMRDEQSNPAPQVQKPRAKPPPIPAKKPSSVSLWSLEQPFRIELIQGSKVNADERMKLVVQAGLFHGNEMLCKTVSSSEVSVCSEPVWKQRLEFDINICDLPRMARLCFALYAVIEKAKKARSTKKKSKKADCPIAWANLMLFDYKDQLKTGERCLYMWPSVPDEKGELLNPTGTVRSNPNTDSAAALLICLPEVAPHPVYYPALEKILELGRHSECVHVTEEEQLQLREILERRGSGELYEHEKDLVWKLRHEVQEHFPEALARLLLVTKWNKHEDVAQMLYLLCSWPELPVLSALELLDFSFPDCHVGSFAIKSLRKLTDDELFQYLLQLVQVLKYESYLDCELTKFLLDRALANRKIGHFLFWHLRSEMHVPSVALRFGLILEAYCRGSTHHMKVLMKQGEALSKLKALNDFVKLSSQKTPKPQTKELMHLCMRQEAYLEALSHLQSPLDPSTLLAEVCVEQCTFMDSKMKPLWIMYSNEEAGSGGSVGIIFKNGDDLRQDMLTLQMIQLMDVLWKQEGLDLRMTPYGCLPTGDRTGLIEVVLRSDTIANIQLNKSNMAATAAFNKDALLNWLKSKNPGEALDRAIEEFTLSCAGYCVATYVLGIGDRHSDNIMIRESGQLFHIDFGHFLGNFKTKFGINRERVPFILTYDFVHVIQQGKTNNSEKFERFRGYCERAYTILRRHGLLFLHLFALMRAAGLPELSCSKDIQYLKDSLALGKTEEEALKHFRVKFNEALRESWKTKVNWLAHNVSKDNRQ
PI3K-δ, sequence (P27986 whole entry partner): as the sequence (P27986 whole entry partner) above

NZBWF1/J mice = assay: Kidney lesions in lupus model, uninephrectomized NZBWF1/J mice; assay type: in vivo, mouse; conditions: 50 mg/kg/day orally
Procedure: FIG. 1 (A to C) illustrates the ability of Compound 5 of the invention to improve kidney lesions in NZBWF1/J mouse model. A. Urinary albumin to creatinine ratio (Ualb/Cre) (Ordinate, mg/mmol). Abscissa (From left to right): Vehicle and Compound 5 (50 mg/kg). B. Blood urea nitrogen level (BUN) (Ordinate, mmol/L). Abscissa (From left to right): Vehicle and Compound 5 (50 mg/kg). C. Glomerular lesion score of kidneys 4 weeks after uninephrectomy followed by treatment with either the vehicle or Compound 5 (n=6 mice per group). AU: Arbitrary Unit (Ordinate). Abscissa (From left to right): Vehicle and Compound 5 (50 mg/kg).
NZBWF1/J mice gradually develop immune glomerulonephritis characterized by proteinuria and kidney dysfunction starting around 25 weeks of age. The uninephrectomy model was employed and uninephrectomy was performed on 12 female mice at 24 weeks of age.
As the incidence and severity of symptoms are more pronounced in females, only females were used in this study. The mice were then randomly assigned to receive either the vehicle (n=6) or Compound 5 50 mg/kg/day orally (n=6) for a duration of 4 weeks. At the end of the treatment period, the mice were sacrificed and their kidney histology was compared to samples obtained during the uninephrectomy procedure.

[2] = Blood glucose after repeated oral gavage in C57B16 mice; assay type: in vivo, mouse; conditions: 50 mg/kg oral gavage daily for 5 days, measured on day 6, C57B16 mice, vs vehicle
Procedure: C57B16 mice (n=6 mice per group, 3 males and 3 females) aged of 8 weeks old were daily treated by either vehicle or Compound 5 (50 mg/kg) during 5 consecutive days through oral gavage.
On day 6, blood glucose concentrations were measured at different time points before and after drug administration.

[3] = Blood insulin concentration after repeated oral gavage in C57B16 mice; assay type: in vivo, mouse; conditions: 50 mg/kg oral gavage daily for 5 days, plasma on day 6, male C57B16 mice, FIG. 2
Procedure: FIG. 2 illustrates the variation of insulin over time for the groups of mice treated either with a vehicle or with Compound 5 of the invention. Ordinate: insulin (ng/ml). Abscissa: time (hours).
C57B16 mice (n=3 mice per group, 3 males) aged of 8 weeks old were daily treated by either vehicle or Compound 5 (50 mg/kg) during 5 consecutive days through oral gavage. On day 6, insulin concentrations were measured at different time points before and after drug administration.
Insulin level was measured in plasma (7 μL in duplicate) using MSD u.plex (Mesoscale, ref 1526HK).

PI3K-α (PI3K p110a/p65a (h)), sequence (P42336 whole entry): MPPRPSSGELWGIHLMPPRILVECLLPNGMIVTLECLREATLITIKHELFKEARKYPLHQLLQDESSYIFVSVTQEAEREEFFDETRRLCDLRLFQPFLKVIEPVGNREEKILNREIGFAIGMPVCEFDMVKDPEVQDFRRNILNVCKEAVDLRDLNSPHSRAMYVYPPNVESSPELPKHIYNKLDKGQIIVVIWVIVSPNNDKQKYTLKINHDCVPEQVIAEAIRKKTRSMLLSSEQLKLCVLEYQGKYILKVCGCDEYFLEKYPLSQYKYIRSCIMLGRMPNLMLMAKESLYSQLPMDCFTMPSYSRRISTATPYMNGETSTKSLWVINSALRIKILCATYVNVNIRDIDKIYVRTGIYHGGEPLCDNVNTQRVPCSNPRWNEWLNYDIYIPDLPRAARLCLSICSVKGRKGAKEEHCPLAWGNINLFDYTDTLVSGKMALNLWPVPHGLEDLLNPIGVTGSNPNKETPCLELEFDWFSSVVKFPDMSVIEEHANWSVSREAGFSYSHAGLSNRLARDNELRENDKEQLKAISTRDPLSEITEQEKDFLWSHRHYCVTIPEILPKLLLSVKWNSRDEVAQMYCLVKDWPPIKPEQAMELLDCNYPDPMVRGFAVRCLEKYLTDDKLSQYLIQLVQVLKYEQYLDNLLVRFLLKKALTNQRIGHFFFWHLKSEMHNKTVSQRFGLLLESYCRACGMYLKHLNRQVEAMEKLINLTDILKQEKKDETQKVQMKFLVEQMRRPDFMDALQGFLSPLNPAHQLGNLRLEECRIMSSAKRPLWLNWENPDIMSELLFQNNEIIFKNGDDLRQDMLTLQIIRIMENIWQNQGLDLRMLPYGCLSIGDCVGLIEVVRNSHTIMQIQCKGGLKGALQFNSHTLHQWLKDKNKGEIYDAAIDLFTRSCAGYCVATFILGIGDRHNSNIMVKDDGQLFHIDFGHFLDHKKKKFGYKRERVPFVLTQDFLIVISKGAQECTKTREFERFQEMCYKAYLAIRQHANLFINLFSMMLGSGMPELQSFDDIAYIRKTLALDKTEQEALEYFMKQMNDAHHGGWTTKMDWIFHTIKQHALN

IC50 [1] | IC50 (PI3K-β) | IC50 (PI3K-γ) | IC50 (PI3K-δ) | blood glucose [2] | blood insulin concentration [3] | Compound | glomerular lesions (glomerular lesion score) (NZBWF1/J mice; 4 weeks after uninephrectomy, histology, FIG. 1C) | kidney-to-body weight ratio (NZBWF1/J mice; 4 weeks, female uninephrectomized NZBWF1/J mice) | albuminuria (urinary albumin to creatinine ratio) (NZBWF1/J mice; 4 weeks, female uninephrectomized NZBWF1/J mice, vs vehicle, FIG. 1A) | blood urea nitrogen levels (NZBWF1/J mice; 4 weeks, female uninephrectomized NZBWF1/J mice, vs vehicle, FIG. 1B)
200 to 500 nM | > 1000 nM | > 1000 nM | 200 to 500 nM |  |  | Cc1nc(NC(=O)N2CC(F)(F)C[C@H]2C(N)=S)sc1-c1ccnc(C(C)(C)C(F)(F)F)c1 [Compound 1, (S)-2-carbamothioyl-4,4-difluoro-N-(4-methyl-5-(2-(1,1,1-trifluoro-2-methylpropan-2-yl)pyridin-4-yl)thiazol-2-yl)pyrrolidine-1-carboxamide] |  |  |  | 
50 to 200 nM | > 1000 nM | 200 to 500 nM | 200 to 500 nM |  |  | Cc1nc(NC(=O)N2C[C@H](F)C[C@H]2C(N)=S)sc1-c1ccnc(C(C)(C)C(F)(F)F)c1 [Compound 2, (2S,4R)-2-carbamothioyl-4-fluoro-N-(4-methyl-5-(2-(1,1,1-trifluoro-2-methylpropan-2-yl)pyridin-4-yl)thiazol-2-yl)pyrrolidine-1-carboxamide] |  |  |  | 
50 to 200 nM | > 1000 nM | 200 to 500 nM | > 1000 nM |  |  | Cc1nc(NC(=O)N2C[C@@H](F)C[C@H]2C(N)=S)sc1-c1ccnc(C(C)(C)C(F)(F)F)c1 [Compound 3, (2S,4S)-2-carbamothioyl-4-fluoro-N-(4-methyl-5-(2-(1,1,1-trifluoro-2-methylpropan-2-yl)pyridin-4-yl)thiazol-2-yl)pyrrolidine-1-carboxamide] |  |  |  | 
> 1000 nM | > 1000 nM | > 1000 nM | > 1000 nM |  |  | Cc1nc(NC(=O)N2CC3(C[C@H]2C(N)=S)CC3(F)F)sc1-c1ccnc(C(C)(C)C(F)(F)F)c1 (stereo partly drawn) [Compound 4, (S)-6-carbamothioyl-N-(4-methyl-5-(2-(1,1,1-trifluoro-2-methylpropan-2-yl)pyridin-4-yl)thiazol-2-yl)-1,1-difluoro-5-azaspiro[2,4]heptane-5-carboxamide] |  |  |  | 
≤ 50 nM | > 1000 nM | 200 to 500 nM | 200 to 500 nM | modest increase | no increase | Cc1nc(NC(=O)N2CCC[C@H]2C(N)=S)sc1-c1ccnc(C(C)(C)C(F)(F)F)c1 [Compound 5, (S)-2-carbamothioyl-N-(4-methyl-5-(2-(1,1,1-trifluoro-2-methylpropan-2-yl)pyridin-4-yl)thiazol-2-yl)pyrrolidine-1-carboxamide] | remained stable | notably decreased | significant reductions | significant reductions
> 1000 nM | > 1000 nM | > 1000 nM | > 1000 nM |  |  | Cc1nc(NC(=O)N2CCC[C@@]2(C)C(N)=S)sc1-c1ccnc(C(C)(C)C(F)(F)F)c1 [Compound 6, (S)-2-carbamothioyl-2-methyl-N-(4-methyl-5-(2-(1,1,1-trifluoro-2-methylpropan-2-yl)pyridin-4-yl)thiazol-2-yl)pyrrolidine-1-carboxamide] |  |  |  | 
50 to 200 nM | > 1000 nM | 200 to 500 nM | 500 to 1000 nM |  |  | CO[C@@H]1C[C@@H](C(N)=S)N(C(=O)Nc2nc(C)c(-c3ccnc(C(C)(C)C(F)(F)F)c3)s2)C1 [Compound 7, (2S,4R)-2-carbamothioyl-4-methoxy-N-(4-methyl-5-(2-(1,1,1-trifluoro-2-methylpropan-2-yl)pyridin-4-yl)thiazol-2-yl)pyrrolidine-1-carboxamide] |  |  |  | 
50 to 200 nM | > 1000 nM | 200 to 500 nM | 500 to 1000 nM |  |  | CO[C@H]1C[C@@H](C(N)=S)N(C(=O)Nc2nc(C)c(-c3ccnc(C(C)(C)C(F)(F)F)c3)s2)C1 [Compound 8, (2S,4S)-2-carbamothioyl-4-methoxy-N-(4-methyl-5-(2-(1,1,1-trifluoro-2-methylpropan-2-yl)pyridin-4-yl)thiazol-2-yl)pyrrolidine-1-carboxamide] |  |  |  | 
200 to 500 nM | > 1000 nM | > 1000 nM | > 1000 nM |  |  | Cc1nc(NC(=O)N2[C@H](C)CC[C@H]2C(N)=S)sc1-c1ccnc(C(C)(C)C(F)(F)F)c1 [Compound 9, (2S,5R)-2-carbamothioyl-5-methyl-N-(4-methyl-5-(2-(1,1,1-trifluoro-2-methylpropan-2-yl)pyridin-4-yl)thiazol-2-yl)pyrrolidine-1-carboxamide] |  |  |  | 
> 1000 nM | > 1000 nM | > 1000 nM | > 1000 nM |  |  | Cc1nc(NC(=O)N2[C@@H](C)CC[C@H]2C(N)=S)sc1-c1ccnc(C(C)(C)C(F)(F)F)c1 [Compound 10, (2S,5S)-2-carbamothioyl-5-methyl-N-(4-methyl-5-(2-(1,1,1-trifluoro-2-methylpropan-2-yl)pyridin-4-yl)thiazol-2-yl)pyrrolidine-1-carboxamide] |  |  |  | 
500 to 1000 nM | > 1000 nM | > 1000 nM | > 1000 nM |  |  | Cc1nc(NC(=O)N2C[C@@H](C(F)(F)F)C[C@H]2C(N)=S)sc1-c1ccnc(C(C)(C)C(F)(F)F)c1 [Compound 12, (2S,4S)-2-carbamothioyl-N-(4-methyl-5-(2-(1,1,1-trifluoro-2-methylpropan-2-yl)pyridin-4-yl)thiazol-2-yl)-4-(trifluoromethyl)pyrrolidine-1-carboxamide] |  |  |  | 
≤ 50 nM | > 1000 nM | 200 to 500 nM | 200 to 500 nM |  |  | Cc1nc(NC(=O)N2C[C@H](O)C[C@H]2C(N)=S)sc1-c1ccnc(C(C)(C)C(F)(F)F)c1 [Compound 13, (2S,4R)-2-carbamothioyl-4-hydroxy-N-(4-methyl-5-(2-(1,1,1-trifluoro-2-methylpropan-2-yl)pyridin-4-yl)thiazol-2-yl)pyrrolidine-1-carboxamide] |  |  |  | 
≤ 50 nM | > 1000 nM | 200 to 500 nM | 200 to 500 nM |  |  | Cc1nc(NC(=O)N2CC[C@H](O)[C@H]2C(N)=S)sc1-c1ccnc(C(C)(C)C(F)(F)F)c1 [Compound 14, (2S,3S)-2-carbamothioyl-3-hydroxy-N-(4-methyl-5-(2-(1,1,1-trifluoro-2-methylpropan-2-yl)pyridin-4-yl)thiazol-2-yl)pyrrolidine-1-carboxamide] |  |  |  | 
